Assay results: patent US6548552B1 (priority 1997, dated 2003)

How the values were obtained:
Format in all cases: cell-based
[1] = tested on: TSST-1 production by S. aureus
S. aureus = tested on: S. aureus
Prevotella bivia = tested on: Prevotella bivia
[2] = tested on: Peptostreptococcus anaerobius
Vaginal Microflora = tested on: Vaginal Microflora

O=C1O[C@H]([C@@H](O)CO)C(O)=C1O [Ascorbic acid, ascorbic acid]
effect on bacterial toxin production (in words) [1]: reduced toxin production
reduction of toxin production [1]: up to 40%
OD540 (Percentage of Control) (S. aureus): 104 Percentage of Control
Staphylococcal / bacterial growth (inhibition, in words) (S. aureus): does not inhibit Staphylococcal growth

Cn1c(=O)c2c(ncn2C)n(C)c1=O [Caffeine, caffeine]
effect on bacterial toxin production (in words) [1]: reduced toxin production
OD540 (Percentage of Control) (S. aureus): 93 Percentage of Control

N[C@@H](CS)C(=O)O [Cysteine, cysteine]
effect on bacterial toxin production (in words) [1]: reduced toxin production
OD540 (Percentage of Control) (S. aureus): 105 Percentage of Control

CC(=O)N[C@@H](CS)C(=O)O [N-acetyl cysteine, N-acetylcysteine]
effect on bacterial toxin production (in words) [1]: reduced toxin production
OD540 (Percentage of Control) (S. aureus): 89 Percentage of Control

CCCCCCCCCCCC(=O)OCCOCCOCCOCCOCCOCCOCCOCCOCCOCCOCCOCCOCCOCCOCCOCCOCCOCCOCCOCCOCC(OCCOCCOCCOCCOCCOCCOCCOCCOCCOCCOCCOCCOCCOCCOCCOCCOCCOCCOCCOCCO)C1OCC(OCCOCCOCCOCCOCCOCCOCCOCCOCCOCCOCCOCCOCCOCCOCCOCCOCCOCCOCCOCCO)C1OCCOCCOCCOCCOCCOCCOCCOCCOCCOCCOCCOCCOCCOCCOCCOCCOCCOCCOCCOCCO (centres unmarked) [Polysorbate 20]
growth of P. bivia (Prevotella bivia): suppressed
growth of P. anaerobius [2]: suppressed

CCCOC(=O)c1cc(O)c(O)c(O)c1 [Propylgallate, propyl gallate]
OD540 (Percentage of Control) (S. aureus): 74 Percentage of Control

OCC(O)CO [glycerin]
growth of P. bivia (Prevotella bivia): inhibited
growth of the isolates tested (Vaginal Microflora): did not effect the growth

beta-mercaptoethanol
OD540 (Percentage of Control) (S. aureus): 93 Percentage of Control

delta-tocopherol
OD540 (Percentage of Control) (S. aureus): 112 Percentage of Control

potassium bisulfite
OD540 (Percentage of Control) (S. aureus): 91 Percentage of Control

sodium bisulfite
OD540 (Percentage of Control) (S. aureus): 64 Percentage of Control

thiodipropionic acid
OD540 (Percentage of Control) (S. aureus): 99 Percentage of Control
